Drawing on patent publication US12577247B2 (BUGWORKS RESEARCH, INC., priority 2021, dated 2026), this text covers IC50 for eleven compounds.

What is called IC50 is the concentration that gives 50% inhibition.

SMILES strings stand for the structures.

The target of assay [1] is T1, A2B receptor (Homo sapiens, UniProt P29275).
T1 sequence (P29275 1-332): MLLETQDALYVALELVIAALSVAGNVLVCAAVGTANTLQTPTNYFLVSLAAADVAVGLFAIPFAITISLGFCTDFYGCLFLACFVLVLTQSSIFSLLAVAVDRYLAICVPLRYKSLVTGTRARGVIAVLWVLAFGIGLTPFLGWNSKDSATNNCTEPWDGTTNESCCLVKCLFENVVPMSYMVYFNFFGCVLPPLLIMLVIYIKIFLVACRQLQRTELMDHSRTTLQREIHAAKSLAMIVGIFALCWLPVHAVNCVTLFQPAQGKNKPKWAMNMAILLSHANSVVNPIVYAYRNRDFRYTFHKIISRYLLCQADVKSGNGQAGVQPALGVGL
As to the kind of experiment: A2bR antagonism IC50, cAMP TR-FRET in HEK-293 cells, high concentration of adenosine (30 μM).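 Also: compounds preincubated 10 min with cells, then adenosine stimulation 30 min at room temperature in buffer with Rolipram 100 µM and EHNA 30 µM, TR-FRET read after 1 h.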 The settings on record: A2BR IC50 (nM) (@30 μM Adenosine), HEK-293 cells expressing A2B receptor; agonist adenosine 30 μM; 2% HSA; inhibition of cAMP. Background: TR-FRET usually uses a lanthanide donor and a delayed reading to cut background.

The target of assay [2] is T2, A2A receptor (Homo sapiens, UniProt P29274).
T2 construct: host or cells: HEK-293
T2 sequence (P29274 whole entry): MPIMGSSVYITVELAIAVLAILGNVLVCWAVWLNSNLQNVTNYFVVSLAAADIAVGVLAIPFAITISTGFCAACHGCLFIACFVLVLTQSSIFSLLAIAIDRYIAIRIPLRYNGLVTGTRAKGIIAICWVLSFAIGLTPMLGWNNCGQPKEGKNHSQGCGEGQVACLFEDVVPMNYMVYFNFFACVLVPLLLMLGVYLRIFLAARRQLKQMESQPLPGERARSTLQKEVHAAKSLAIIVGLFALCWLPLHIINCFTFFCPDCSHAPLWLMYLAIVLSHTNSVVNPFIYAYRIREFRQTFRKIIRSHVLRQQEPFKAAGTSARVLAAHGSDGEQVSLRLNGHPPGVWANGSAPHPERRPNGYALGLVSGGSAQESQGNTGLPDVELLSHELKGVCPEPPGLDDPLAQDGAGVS
Kind of assay: A2aR antagonism IC50, cAMP TR-FRET in HEK-293 cells, high concentration of adenosine (30 μM).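 Also: compounds added 10 min before adenosine, then 30 min stimulation at room temperature in buffer with 100 µM rolipram and 30 µM EHNA, signal read 1 h after detection reagents.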 In kind it is cell-based. The conditions noted are these: HEK-293 cells expressing A2A receptor; agonist adenosine 30 μM; 2% HSA; inhibition of cAMP; read-out: A2AR IC50 (nM) (@30 μM Adenosine).

As to `CCc1c(C)nn2c(N)c(C#N)c(NCCc3ccn(C4CCC4CN)n3)nc12` (stereo not shown) [Example 109, 7-amino-5-((2-(1-(2-(aminomethyl)cyclobutyl)-1H-pyrazol-3-yl)ethyl)amino)-3-ethyl-2-methylpyrazolo[1,5-a]pyrimidine-6-carbonitrile], the IC50 in assay [1] was 723 nM; in assay [2], 402 nM.

`CCn1cccc(CCNc2nc3c(Cl)c(C)nn3c(N)c2C#N)c1=O` [Example 70, 7-amino-3-chloro-5-((2-(1-ethyl-2-oxo-1,2-dihydropyridin-3-yl)ethyl)amino)-2-methylpyrazolo[1,5-a]pyrimidine-6-carbonitrile]: the half-maximal inhibitory concentration (IC50) is over 15000 nM in assay [1] and 125 nM in assay [2].

For `Cc1nn2c(N)c(C#N)c(NCCc3cccc(CNCCO)n3)nc2c1Cl` [Example 90, 7-amino-3-chloro-5-((2-(6-(((2-hydroxyethyl)amino)methyl)pyridin-2-yl)ethyl)amino)-2-methylpyrazolo[1,5-a]pyrimidine-6-carbonitrile], the IC50 in assay [1] was 1830 nM; in assay [2], 77 nM.

Take `Cc1nn2c(N)c(C#N)c(NCCc3cccn(CCCN)c3=O)nc2c1Cl` [Example 129, 7-amino-5-((2-(1-(3-aminopropyl)-2-oxo-1,2-dihydropyridin-3-yl)ethyl)amino)-3-chloro-2-methylpyrazolo[1,5-a]pyrimidine-6-carbonitrile]: the IC50 in assay [1] stood at 5660 nM; in assay [2] it was 237 nM.

In the case of `CCc1c(C)nn2c(N)c(C#N)c(NCCc3cc(C)n(C4COCC4CO)n3)nc12` (single isomer, unassigned) [Example 167], the IC50 in assay [1] was determined as 700 nM; in assay [2] it was 100 nM.

As for `Cc1nn2c(N)c(C#N)c(NCCc3ccn(C4(CO)CC4)n3)nc2c1CC1CCC1` [Example 137, 7-amino-3-(cyclobutylmethyl)-5-((2-(1-(1-(hydroxymethyl)cyclopropyl)-1H-pyrazol-3-yl)ethyl)amino)-2-methylpyrazolo[1,5-a]pyrimidine-6-carbonitrile], the concentration for half-maximal inhibition (IC50) was over 15000 nM in assay [1] and 820 nM in assay [2].

Regarding `Cc1nn2c(N)c(C#N)c(NCCc3ccn(C4(CO)CC4)n3)nc2c1Br` [Example 69, 7-amino-3-bromo-5-((2-(1-(1-(hydroxymethyl)cyclopropyl)-1H-pyrazol-3-yl)ethyl)amino)-2-methylpyrazolo[1,5-a]pyrimidine-6-carbonitrile], the values for the IC50 in assay [1] and in assay [2] were 2050 nM and 68 nM, respectively.

On to `CCc1c(C)nn2c(N)c(C#N)c(NCCc3cccn(CC[S+](C)[O-])c3=O)nc12` (single isomer, unassigned; (+)) [Example 144a, (+)7-amino-3-ethyl-2-methyl-5-((2-(1-(2-(methylsulfinyl)ethyl)-2-oxo-1,2-dihydropyridin-3-yl)ethyl)amino) pyrazolo[1,5-a]pyrimidine-6-carbonitrile], for which the IC50 in assay [1] turned out to be 821 nM; in assay [2], 327 nM.

Turning to `CCc1c(C)nn2c(N)c(C#N)c(NCCc3cccn(CCCNC(C)=O)c3=O)nc12` [Example 145, N-(3-(3-(2-((7-amino-6-cyano-3-ethyl-2-methylpyrazolo[1,5-a]pyrimidin-5-yl)amino)ethyl)-2-oxopyridin-1(2H)-yl)propyl) acetamide], the 50% inhibitory concentration (IC50) in assay [1] is 1130 nM; in assay [2], 294 nM.

For `Cc1nn2c(N)c(C#N)c(NCCc3cccn(CCCN)c3=O)nc2c1C` [Example 141, 7-amino-5-((2-(1-(3-aminopropyl)-2-oxo-1,2-dihydropyridin-3-yl)ethyl)amino)-2,3-dimethylpyrazolo[1,5-a]pyrimidine-6-carbonitrile], the IC50 in assay [1] worked out at 4750 nM; in assay [2], 679 nM.

In the case of `CCc1c(C)nn2c(N)c(C#N)c(NCCc3ccn(C4(CCNC(C)=O)CC4)n3)nc12` [Example 149, N-(2-(1-(3-(2-((7-amino-6-cyano-3-ethyl-2-methylpyrazolo[1,5-a]pyrimidin-5-yl)amino)ethyl)-1H-pyrazol-1-yl)cyclopropyl)ethyl) acetamide], the 50% inhibitory concentration (IC50) in assay [1] is 988 nM; in assay [2] it was 43 nM.
